{"source": "paper PMC7377239", "about": "“Cardiovascular Effects of Polychlorinated Biphenyls and Their Major Metabolites” (Environmental Health Perspectives, 2020)", "key": {"[1]": {"system": "iCell endothelial cells (human iPSC-derived ECs)", "test": "High-content imaging cytotoxicity in iCell endothelial cells, 24 h", "type": "cell-based", "settings": "Homo sapiens, Endothelial cell, iPSC-EC; for viability at 0.1 µM / activity at 0.1 µM: 0.10 µM; for minimal effective concentration: 100.00 = highest concentration tested", "how_it_was_run": "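Readouts were vehicle-normalised and fitted to a four-parameter logistic model. POD was set at one SD beyond 0.5% DMSO control means, and 100 µM was assigned when no response was seen. Cells were monolayers of iCell endothelial cells imaged after 24 h compound exposure using nuclear, mitochondrial and calcein dyes.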"}, "HUVECs": {"system": "HUVECs", "test": "High-content imaging cytotoxicity in HUVECs, 24 h", "type": "cell-based, human", "settings": "Homo sapiens, HUVEC, 24 h, HUVECs; for viability at 0.01 µM / activity at 0.01 µM: concentration 0.01 µM; for viability at 0.01 µM / activity at 0.01 µM / viability at 0.1 µM / activity at 0.1 µM / viability at 1 µM / activity at 1 µM / viability at 10 µM / activity at 10 µM / viability at 100 µM / activity at 100 µM: 0.00 µM = 100.00; for viability at 0.1 µM / activity at 0.1 µM: concentration 0.10 µM; for viability at 1 µM / activity at 1 µM: concentration 1.00 µM; for viability at 10 µM / activity at 10 µM: concentration 10.00 µM; for viability at 100 µM / activity at 100 µM: concentration 100.00 µM; for minimal effective concentration: MAX 100.00", "how_it_was_run": "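Confluent HUVEC monolayers, passages 1–5, received test chemicals for 24 h. Cytotoxicity was scored from triple-stain high-content images, with PODs defined by a one-SD deviation from 0.5% DMSO vehicle controls.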"}, "[2]": {"settings": "0.00 µM = 100.00, read-out: endo.cyto.24hr"}, "[3]": {"settings": "0.00 µM = 100.00, read-out: endo.mito.24hr"}, "[4]": {"settings": "0.00 µM = 100.00, read-out: endo.mitoint.24hr"}, "[5]": {"settings": "0.00 µM = 100.00, read-out: endo.nma.24hr"}, "[6]": {"settings": "0.00 µM = 100.00, read-out: endo.tc.24hrs"}, "[7]": {"settings": "24 hr, read-out: huvec.cyto.24hr"}, "[8]": {"settings": "24 hr, read-out: huvec.mito.24hr"}, "[9]": {"settings": "24 hr, read-out: huvec.mitoint.24hr"}, "[10]": {"settings": "24 hr, read-out: huvec.nma.24hr"}, "[11]": {"settings": "24 hrs, read-out: huvec.tc.24hrs"}}, "note": "Read-outs that look alike come from different tables or passages of the source.", "data": [{"molecule": "COc1cc(Cl)c(-c2cc(Cl)ccc2Cl)cc1Cl", "note": "[4-OMe PCB52]", "values": [{"measurement": "viability at 0.01 µM", "setting": "[1]; [2]", "result": 104, "unit": "%"}, {"measurement": "activity at 0.01 µM", "setting": "[1]; [3]", "result": 104, "unit": "%"}, {"measurement": "activity at 0.01 µM", "setting": "[1]; [4]", "result": 88.9, "unit": "%"}, {"measurement": "activity at 0.01 µM", "setting": "[1]; [5]", "result": 102, "unit": "%"}, {"measurement": "viability at 0.01 µM", "setting": "[1]; [6]", "result": 104, "unit": "%"}, {"measurement": "viability at 0.1 µM", "setting": "[1]; [2]", "result": 101, "unit": "%"}, {"measurement": "activity at 0.1 µM", "setting": "[1]; [3]", "result": 101, "unit": "%"}, {"measurement": "activity at 0.1 µM", "setting": "[1]; [4]", "result": 88, "unit": "%"}, {"measurement": "activity at 0.1 µM", "setting": "[1]; [5]", "result": 102, "unit": "%"}, {"measurement": "viability at 0.1 µM", "setting": "[1]; [6]", "result": 101, "unit": "%"}, {"measurement": "viability at 1 µM", "setting": "[1]; [2]", "result": 104, "unit": "%"}, {"measurement": "activity at 1 µM", "setting": "[1]; [3]", "result": 103, "unit": "%"}, {"measurement": "activity at 1 µM", "setting": "[1]; [4]", "result": 84.8, "unit": "%"}, {"measurement": "activity at 1 µM", "setting": "[1]; [5]", "result": 100, "unit": "%"}, {"measurement": "viability at 1 µM", "setting": "[1]; [6]", "result": 104, "unit": "%"}, {"measurement": "viability at 10 µM", "setting": "[1]; [2]", "result": 106, "unit": "%"}, {"measurement": "activity at 10 µM", "setting": "[1]; [3]", "result": 106, "unit": "%"}, {"measurement": "activity at 10 µM", "setting": "[1]; [4]", "result": 92.2, "unit": "%"}, {"measurement": "activity at 10 µM", "setting": "[1]; [5]", "result": 99.7, "unit": "%"}, {"measurement": "viability at 10 µM", "setting": "[1]; [6]", "result": 106, "unit": "%"}, {"measurement": "viability at 100 µM", "setting": "[1]; [2]", "result": 53.2, "unit": "%"}, {"measurement": "activity at 100 µM", "setting": "[1]; [3]", "result": 48.4, "unit": "%"}, {"measurement": "activity at 100 µM", "setting": "[1]; [4]", "result": 74.5, "unit": "%"}, {"measurement": "activity at 100 µM", "setting": "[1]; [5]", "result": 117, "unit": "%"}, {"measurement": "viability at 100 µM", "setting": "[1]; [6]", "result": 56.6, "unit": "%"}, {"measurement": "minimal effective concentration", "setting": "[1]; read-out: endo.cyto.24hr POD", "result": 43.5, "unit": "µM"}, {"measurement": "minimal effective concentration", "setting": "[1]; read-out: endo.mito.24hr POD", "result": 43.5, "unit": "µM"}, {"measurement": "minimal effective concentration", "setting": "[1]; read-out: endo.mitoint.24hr POD", "result": 100, "unit": "µM"}, {"measurement": "minimal effective concentration", "setting": "[1]; read-out: endo.nma.24hr POD", "result": 56.1, "unit": "µM"}, {"measurement": "minimal effective concentration", "setting": "[1]; read-out: endo.tc.24hrs POD", "result": 40.3, "unit": "µM"}, {"measurement": "viability at 0.01 µM", "setting": "HUVECs; [7]", "result": 105, "unit": "%"}, {"measurement": "activity at 0.01 µM", "setting": "HUVECs; [8]", "result": 105, "unit": "%"}, {"measurement": "activity at 0.01 µM", "setting": "HUVECs; [9]", "result": 107, "unit": "%"}, {"measurement": "activity at 0.01 µM", "setting": "HUVECs; [10]", "result": 98.6, "unit": "%"}, {"measurement": "viability at 0.1 µM", "setting": "HUVECs; [7]", "result": 102, "unit": "%"}, {"measurement": "activity at 0.1 µM", "setting": "HUVECs; [8]", "result": 102, "unit": "%"}, {"measurement": "activity at 0.1 µM", "setting": "HUVECs; [9]", "result": 114, "unit": "%"}, {"measurement": "activity at 0.1 µM", "setting": "HUVECs; [10]", "result": 99.1, "unit": "%"}, {"measurement": "viability at 1 µM", "setting": "HUVECs; [7]", "result": 85.9, "unit": "%"}, {"measurement": "activity at 1 µM", "setting": "HUVECs; [8]", "result": 85.8, "unit": "%"}, {"measurement": "activity at 1 µM", "setting": "HUVECs; [9]", "result": 113, "unit": "%"}, {"measurement": "activity at 1 µM", "setting": "HUVECs; [10]", "result": 104, "unit": "%"}, {"measurement": "viability at 10 µM", "setting": "HUVECs; [7]", "result": 57.8, "unit": "%"}, {"measurement": "activity at 10 µM", "setting": "HUVECs; [8]", "result": 31.1, "unit": "%"}, {"measurement": "activity at 10 µM", "setting": "HUVECs; [9]", "result": 11.1, "unit": "%"}, {"measurement": "activity at 10 µM", "setting": "HUVECs; [10]", "result": 54.2, "unit": "%"}, {"measurement": "viability at 100 µM", "setting": "HUVECs; [7]", "result": 60, "unit": "%"}, {"measurement": "activity at 100 µM", "setting": "HUVECs; [8]", "result": 23, "unit": "%"}, {"measurement": "activity at 100 µM", "setting": "HUVECs; [9]", "result": 13.4, "unit": "%"}, {"measurement": "activity at 100 µM", "setting": "HUVECs; [10]", "result": 63.6, "unit": "%"}, {"measurement": "minimal effective concentration", "setting": "HUVECs; 24 hr, read-out: huvec.cyto.24hr POD", "result": 0.78, "unit": "µM"}, {"measurement": "minimal effective concentration", "setting": "HUVECs; 24 hr, read-out: huvec.mito.24hr POD", "result": 0.55, "unit": "µM"}, {"measurement": "minimal effective concentration", "setting": "HUVECs; 24 hr, read-out: huvec.mitoint.24hr POD", "result": 2.69, "unit": "µM"}, {"measurement": "minimal effective concentration", "setting": "HUVECs; 24 hr, read-out: huvec.nma.24hr POD", "result": 2.36, "unit": "µM"}, {"measurement": "viability at 0.01 µM", "setting": "HUVECs; [11]", "result": 105, "unit": "%"}, {"measurement": "viability at 0.1 µM", "setting": "HUVECs; [11]", "result": 102, "unit": "%"}, {"measurement": "viability at 1 µM", "setting": "HUVECs; [11]", "result": 85.9, "unit": "%"}, {"measurement": "viability at 10 µM", "setting": "HUVECs; [11]", "result": 57.9, "unit": "%"}, {"measurement": "viability at 100 µM", "setting": "HUVECs; [11]", "result": 60, "unit": "%"}, {"measurement": "minimal effective concentration", "setting": "HUVECs; 24 hrs, read-out: huvec.tc.24hrs POD", "result": 0.78, "unit": "µM"}]}]}
